Where a name gives a salt, the structure may show the parent alone.
Target: IRAK4 (Homo sapiens (Human), UniProt Q9NWZ3)
Experiment: IRAK4 Kinase Assay
Format: biochemical
Conditions: IMAP fluorescence polarization, 0.5 nM GST tagged IRAK4, 100 μM ATP, 30 minutes at 25° C.; read-out: IRAK4 IC50

Sequence of IRAK4 (Q9NWZ3 whole entry): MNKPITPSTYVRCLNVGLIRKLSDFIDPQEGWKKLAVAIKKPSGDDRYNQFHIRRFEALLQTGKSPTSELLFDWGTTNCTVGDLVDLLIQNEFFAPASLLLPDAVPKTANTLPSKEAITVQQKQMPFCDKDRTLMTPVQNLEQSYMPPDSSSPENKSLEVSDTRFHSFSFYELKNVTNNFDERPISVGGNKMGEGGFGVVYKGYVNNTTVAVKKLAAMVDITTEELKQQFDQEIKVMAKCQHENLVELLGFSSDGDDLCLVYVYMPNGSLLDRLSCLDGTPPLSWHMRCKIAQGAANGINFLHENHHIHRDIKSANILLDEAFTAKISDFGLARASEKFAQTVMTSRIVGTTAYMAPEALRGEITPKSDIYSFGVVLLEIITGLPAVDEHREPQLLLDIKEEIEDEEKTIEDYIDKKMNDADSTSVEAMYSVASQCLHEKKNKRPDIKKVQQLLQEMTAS

SMILES	IC50
O=C(Nc1ccccc1C(F)F)c1cnn2ccc(N3CCCNCC3)nc12 [Example 130, 5-(1,4-diazepan-1-yl)-N-[2-(difluoromethyl)phenyl] pyrazolo[1,5-a]pyrimidine-3-carboxamide]	8810 nM
N[C@H]1CCCC[C@H]1Nc1ccn2ncc(C(=O)Nc3ccccc3C(F)F)c2n1 [Example 131, 5-{[(1R,2S)-2-aminocyclohexyl]amino}-N-[2-(difluoromethyl)phenyl] pyrazolo[1,5-a]pyrimidine-3-carboxamide trifluoroacetate]	8 nM
N[C@@H]1[C@H](Nc2ccn3ncc(C(=O)Nc4ccccc4C(F)F)c3n2)CCCC1(F)F [Example 132, 5-{[(1R,2R)-2-amino-3,3-difluorocyclohexyl]amino}-N-[2-(difluoromethyl)phenyl] pyrazolo[1,5-a]pyrimidine-3-carboxamide trifluoroacetate]	2100 nM
N#Cc1sccc1NC(=O)c1cnn2ccc(N[C@@H]3CCCC(F)(F)[C@@H]3N)nc12 [Example 133, 5-{[(1R,2R)-2-amino-3,3-difluorocyclohexyl]amino}-N-(2-cyanothiophen-3-yl)pyrazolo[1,5-a]pyrimidine-3-carboxamide trifluoroacetate]	95 nM
O=C(Nc1ccsc1Cl)c1cnn2ccc(N3CC4CCC3CN4)nc12 (stereo not drawn) [Example 134, N-(2-chlorothiophen-3-yl)-5-(2,5-diazabicyclo[2.2.2]oct-2-yl)pyrazolo[1,5-a]pyrimidine-3-carboxamide trifluoroacetate]	306 nM
O=C(Nc1cscc1C(F)F)c1cnn2ccc(N3CC4CCC3CN4)nc12 (stereo not drawn) [Example 135, 5-(2,5-diazabicyclo[2.2.2]oct-2-yl)-N-[4-(difluoromethyl)thiopen-3-yl]pyrazolo[1,5-a]pyrimidine-3-carboxamide trifluoroacetate]	48 nM
Cn1cc(NC(=O)c2cnn3ccc(N4CC5CCC4CN5)nc23)c(C#N)n1 (stereo not drawn) [Example 136, N-(3-cyano-1-methyl-1H-pyrazol-4-yl)-5-(2,5-diazabicyclo[2.2.2]oct-2-yl)pyrazolo[1,5-a]pyrimidine-3-carboxamide trifluoroacetate]	49 nM
Cn1cc(NC(=O)c2cnn3ccc(N4CCCNCC4)nc23)c(Br)n1 [Example 137, N-(3-bromo-1-methyl-1H-pyrazol-4-yl)-5-(1,4-diazepan-1-yl)pyrazolo[1,5-a]pyrimidine-3-carboxamide trifluoroacetate]	72 nM
Cn1cc(NC(=O)c2cnn3ccc(N[C@@H]4CCCC[C@@H]4N)nc23)c(Br)n1 [Example 138, 5-{[(1R,2S)-2-aminocyclohexyl]amino}-N-(3-bromo-1-methyl-1H-pyrazol-4-yl)pyrazolo[1,5-a]pyrimidine-3-carboxamide trifluoroacetate]	0.3 nM
Cn1cc(NC(=O)c2cnn3ccc(N[C@@H]4CCCC(F)(F)[C@@H]4N)nc23)c(Br)n1 [Example 139, 5-{[(1R,2R)-2-amino-3,3-difluorocyclohexyl]amino}-N-(3-bromo-1-methyl-1H-pyrazol-4-yl)pyrazolo[1,5-a]pyrimidine-3-carboxamide trifluoroacetate]	126 nM
Cn1cc(NC(=O)c2cnn3ccc(N4CC5CCC4CN5)nc23)c(Br)n1 (stereo not drawn) [Example 140, N-(3-bromo-1-methyl-1H-pyrazol-4-yl)-5-(2,5-diazabicyclo[2.2.2]oct-2-yl)pyrazolo[1,5-a]pyrimidine-3-carboxamide trifluoroacetate]	42 nM
N#Cc1cscc1NC(=O)c1cnn2ccc(N3CCCNCC3)nc12 [Example 141, N-(4-cyanothiophen-3-yl)-5-(1,4-diazepan-1-yl)pyrazolo[1,5-a]pyrimidine-3-carboxamide trifluoroacetate]	359 nM
O=C(Nc1ccsc1Br)c1cnn2ccc(N3CC4CCC3CN4)nc12 (stereo not drawn) [Example 142, N-(2-bromothiophen-3-yl)-5-(2,5-diazabicyclo[2.2.2]oct-2-yl)pyrazolo[1,5-a]pyrimidine-3-carboxamide trifluoroacetate]	524 nM
N#Cc1cscc1NC(=O)c1cnn2ccc(N[C@@H]3CCCC(F)(F)[C@@H]3N)nc12 [Example 143, 5-{[(1R,2R)-2-amino-3,3-difluorocyclohexyl]amino}-N-(4-cyanothiophen-3-yl)pyrazolo[1,5-a]pyrimidine-3-carboxamide]	192 nM
N[C@H]1CCCC[C@H]1Nc1ccn2ncc(C(=O)Nc3ccsc3C(F)(F)F)c2n1 [Example 144, 5-{[(1R,2S)-2-aminocyclohexyl]amino}-N-[2-(trifluoromethyl)thiophen-3-yl]pyrazolo[1,5-a]pyrimidine-3-carboxamide trifluoroacetate]	7 nM
N#Cc1cscc1NC(=O)c1cnn2ccc(N3CC4CCC3CN4)nc12 (stereo not drawn) [Example 145, N-(4-cyanothiophen-3-yl)-5-(2,5-diazabicyclo[2.2.2]oct-2-yl)pyrazolo[1,5-a]pyrimidine-3-carboxamide trifluoroacetate]	165 nM
O=C(Nc1ccccc1C(F)F)c1cnn2ccc(N3CC4CCC3CN4)nc12 (stereo not drawn) [Example 146, 5-(2,5-diazabicyclo[2.2.2]oct-2-yl)-N-[2-(difluoromethyl)phenyl] pyrazolo[1,5-a]pyrimidine-3-carboxamide trifluoroacetate]	1460 nM

SMILES	IC50
O=C(Nc1ccsc1C(F)(F)F)c1cnn2ccc(N3CC4CCC3CN4)nc12 (stereo not drawn) [Example 147, 5-(2,5-diazabicyclo[2.2.2]oct-2-yl)-N-[2-(trifluoromethyl)thiophen-3-yl]pyrazolo[1,5-a]pyrimidine-3-carboxamide trifluoroacetate]	979 nM
Cn1cc(NC(=O)c2cnn3ccc(N4CCCNCC4)nc23)c(Cl)n1 [Example 148, N-(3-chloro-1-methyl-1H-pyrazol-4-yl)-5-(1,4-diazepan-1-yl)pyrazolo[1,5-a]pyrimidine-3-carboxamide trifluoroacetate]	113 nM
Cn1cc(NC(=O)c2cnn3ccc(N[C@@H]4CCCC[C@@H]4N)nc23)c(Cl)n1 [Example 149, 5-{[(1R,2S)-2-aminocyclohexyl]amino}-N-(3-chloro-1-methyl-1H-pyrazol-4-yl)pyrazolo[1,5-a]pyrimidine-3-carboxamide trifluoroacetate]	0.5 nM
Cn1cc(NC(=O)c2cnn3ccc(N[C@@H]4CCCC(F)(F)[C@@H]4N)nc23)c(Cl)n1 [Example 150, 5-{[(1R,2R)-2-amino-3,3-difluorocyclohexyl]amino}-N-(3-chloro-1-methyl-1H-pyrazol-4-yl)pyrazolo[1,5-a]pyrimidine-3-carboxamide]	109 nM
O=C(Nc1ccsc1C(F)(F)F)c1cnn2ccc(N3CCCNCC3)nc12 [Example 153, 5-(1,4-diazepan-1-yl)-N-[2-(trifluoromethyl)thiophen-3-yl]pyrazolo[1,5-a]pyrimidine-3-carboxamide trifluoroacetate]	1010 nM
Cn1ncc(NC(=O)c2cnn3ccc(N[C@@H]4CCCC[C@@H]4N)nc23)c1C(F)(F)F [Example 166, 5-{[(1R,2S)-2-aminocyclohexyl]amino}-N-[1-methyl-5-(trifluoromethyl)-1H-pyrazol-4-yl]pyrazolo[1,5-a]pyrimidine-3-carboxamide trifluoroacetate]	15 nM
O=C(Nc1cscc1Cl)c1cnn2ccc(N3CCCNCC3)nc12 [Example 167, N-(4-chlorothiophen-3-yl)-5-(1,4-diazepan-1-yl)pyrazolo[1,5-a]pyrimidine-3-carboxamide trifluoroacetate]	480 nM
N[C@H]1CCCC[C@H]1Nc1ccn2ncc(C(=O)Nc3cscc3Cl)c2n1 [Example 168, 5-{[(1R,2S)-2-aminocyclohexyl]amino}-N-(4-chlorothiophen-3-yl)pyrazolo[1,5-a]pyrimidine-3-carboxamide trifluoroacetate]	1 nM
N[C@@H]1[C@H](Nc2ccn3ncc(C(=O)Nc4ccsc4C(F)F)c3n2)CCCC1(F)F [Example 170, 5-{[(1R,2R)-2-amino-3,3-difluorocyclohexyl]amino}-N-[2-(difluoromethyl)thiophen-3-yl]pyrazolo[1,5-a]pyrimidine-3-carboxamide]	560 nM
Cn1cc(NC(=O)c2cnn3ccc(N4CC5CCC(C4)N5)nc23)c(C(F)F)n1 [Example 172, 5-(3,8-diazabicyclo[3.2.1]oct-3-yl)-N-[3-(difluoromethyl)-1-methyl-1H-pyrazol-4-yl]pyrazolo[1,5-a]pyrimidine-3-carboxamide trifluoroacetate]	1 nM
N[C@H]1CCCC[C@H]1Nc1ccn2ncc(C(=O)Nc3ccsc3)c2n1 [Example 181, 5-{[(1R,2S)-2-aminocyclohexyl]amino}-N-thiophen-3-ylpyrazolo[1,5-a]pyrimidine-3-carboxamide trifluoroacetate]	54 nM
Cn1cc(NC(=O)c2cnn3ccc(N4CC5CNC(C5)C4)nc23)c(C(F)F)n1 (stereo not drawn) [Example 182, 5-[(3,6-diazabicyclo[3.2.1]oct-3-yl]-N-[3-(difluoromethyl)-1-methyl-1H-pyrazol-4-yl]pyrazolo[1,5-a]pyrimidine-3-carboxamide trifluoroacetate]	14 nM
O=C(Nc1ccsc1Cl)c1cnn2ccc(N[C@@H]3CCCC[C@@H]3O)nc12 [Example 185, N-(2-chlorothiophen-3-yl)-5-{[(1R,2S)-2-hydroxycyclohexyl]amino} pyrazolo[1,5-a]pyrimidine-3-carboxamide]	1580 nM
Cn1cc(NC(=O)c2cnn3ccc(N[C@@H]4CCCC[C@@H]4O)nc23)c(Cl)n1 [Example 186, N-(3-chloro-1-methyl-1H-pyrazol-4-yl)-5-{[(1R,2S)-2-hydroxycyclohexyl]amino} pyrazolo[1,5-a]pyrimidine-3-carboxamide]	24 nM
N#Cc1sccc1NC(=O)c1cnn2ccc(N[C@@H]3CCCC[C@@H]3O)nc12 [Example 187, N-(2-cyanothiophen-3-yl)-5-{[(1R,2S)-2-hydroxycyclohexyl]amino} pyrazolo[1,5-a]pyrimidine-3-carboxamide]	250 nM
N[C@@H]1[C@H](Nc2ccn3ncc(C(=O)Nc4ccsc4Cl)c3n2)CCCC1(F)F [Example 190, 5-{[(1R,2R)-2-amino-3,3-difluorocyclohexyl]amino}-N-(2-chlorothiophen-3-yl)pyrazolo[1,5-a]pyrimidine-3-carboxamide]	891 nM

Reference: US10329294B2, “Pyrazolopyrimidine inhibitors of IRAK4 activity” (MERCK SHARP & DOHME CORP., priority 2015, dated 2019)
